Data as given in paper PMC9412534, “Diindolylmethane Derivatives: New Selective Blockers for T-Type Calcium Channels” (Membranes, 2022).
Read-outs that look alike come from different tables or passages of the source.

Columns and labels:
human CaV3.1 = target: T1, human CaV3.1 (Homo sapiens, UniProt O43497); assay: T-type calcium channel window current FLIPR assay, CaV3.1; assay type: cell-based; details: n = 3, read-out: IC50 CaV3.1 (LVA CaVs)
T1 construct: expressed in transfected cells; host or cells: HEK 293 T cells, transient transfection (FuGENE HD)
T1 sequence (O43497 whole entry): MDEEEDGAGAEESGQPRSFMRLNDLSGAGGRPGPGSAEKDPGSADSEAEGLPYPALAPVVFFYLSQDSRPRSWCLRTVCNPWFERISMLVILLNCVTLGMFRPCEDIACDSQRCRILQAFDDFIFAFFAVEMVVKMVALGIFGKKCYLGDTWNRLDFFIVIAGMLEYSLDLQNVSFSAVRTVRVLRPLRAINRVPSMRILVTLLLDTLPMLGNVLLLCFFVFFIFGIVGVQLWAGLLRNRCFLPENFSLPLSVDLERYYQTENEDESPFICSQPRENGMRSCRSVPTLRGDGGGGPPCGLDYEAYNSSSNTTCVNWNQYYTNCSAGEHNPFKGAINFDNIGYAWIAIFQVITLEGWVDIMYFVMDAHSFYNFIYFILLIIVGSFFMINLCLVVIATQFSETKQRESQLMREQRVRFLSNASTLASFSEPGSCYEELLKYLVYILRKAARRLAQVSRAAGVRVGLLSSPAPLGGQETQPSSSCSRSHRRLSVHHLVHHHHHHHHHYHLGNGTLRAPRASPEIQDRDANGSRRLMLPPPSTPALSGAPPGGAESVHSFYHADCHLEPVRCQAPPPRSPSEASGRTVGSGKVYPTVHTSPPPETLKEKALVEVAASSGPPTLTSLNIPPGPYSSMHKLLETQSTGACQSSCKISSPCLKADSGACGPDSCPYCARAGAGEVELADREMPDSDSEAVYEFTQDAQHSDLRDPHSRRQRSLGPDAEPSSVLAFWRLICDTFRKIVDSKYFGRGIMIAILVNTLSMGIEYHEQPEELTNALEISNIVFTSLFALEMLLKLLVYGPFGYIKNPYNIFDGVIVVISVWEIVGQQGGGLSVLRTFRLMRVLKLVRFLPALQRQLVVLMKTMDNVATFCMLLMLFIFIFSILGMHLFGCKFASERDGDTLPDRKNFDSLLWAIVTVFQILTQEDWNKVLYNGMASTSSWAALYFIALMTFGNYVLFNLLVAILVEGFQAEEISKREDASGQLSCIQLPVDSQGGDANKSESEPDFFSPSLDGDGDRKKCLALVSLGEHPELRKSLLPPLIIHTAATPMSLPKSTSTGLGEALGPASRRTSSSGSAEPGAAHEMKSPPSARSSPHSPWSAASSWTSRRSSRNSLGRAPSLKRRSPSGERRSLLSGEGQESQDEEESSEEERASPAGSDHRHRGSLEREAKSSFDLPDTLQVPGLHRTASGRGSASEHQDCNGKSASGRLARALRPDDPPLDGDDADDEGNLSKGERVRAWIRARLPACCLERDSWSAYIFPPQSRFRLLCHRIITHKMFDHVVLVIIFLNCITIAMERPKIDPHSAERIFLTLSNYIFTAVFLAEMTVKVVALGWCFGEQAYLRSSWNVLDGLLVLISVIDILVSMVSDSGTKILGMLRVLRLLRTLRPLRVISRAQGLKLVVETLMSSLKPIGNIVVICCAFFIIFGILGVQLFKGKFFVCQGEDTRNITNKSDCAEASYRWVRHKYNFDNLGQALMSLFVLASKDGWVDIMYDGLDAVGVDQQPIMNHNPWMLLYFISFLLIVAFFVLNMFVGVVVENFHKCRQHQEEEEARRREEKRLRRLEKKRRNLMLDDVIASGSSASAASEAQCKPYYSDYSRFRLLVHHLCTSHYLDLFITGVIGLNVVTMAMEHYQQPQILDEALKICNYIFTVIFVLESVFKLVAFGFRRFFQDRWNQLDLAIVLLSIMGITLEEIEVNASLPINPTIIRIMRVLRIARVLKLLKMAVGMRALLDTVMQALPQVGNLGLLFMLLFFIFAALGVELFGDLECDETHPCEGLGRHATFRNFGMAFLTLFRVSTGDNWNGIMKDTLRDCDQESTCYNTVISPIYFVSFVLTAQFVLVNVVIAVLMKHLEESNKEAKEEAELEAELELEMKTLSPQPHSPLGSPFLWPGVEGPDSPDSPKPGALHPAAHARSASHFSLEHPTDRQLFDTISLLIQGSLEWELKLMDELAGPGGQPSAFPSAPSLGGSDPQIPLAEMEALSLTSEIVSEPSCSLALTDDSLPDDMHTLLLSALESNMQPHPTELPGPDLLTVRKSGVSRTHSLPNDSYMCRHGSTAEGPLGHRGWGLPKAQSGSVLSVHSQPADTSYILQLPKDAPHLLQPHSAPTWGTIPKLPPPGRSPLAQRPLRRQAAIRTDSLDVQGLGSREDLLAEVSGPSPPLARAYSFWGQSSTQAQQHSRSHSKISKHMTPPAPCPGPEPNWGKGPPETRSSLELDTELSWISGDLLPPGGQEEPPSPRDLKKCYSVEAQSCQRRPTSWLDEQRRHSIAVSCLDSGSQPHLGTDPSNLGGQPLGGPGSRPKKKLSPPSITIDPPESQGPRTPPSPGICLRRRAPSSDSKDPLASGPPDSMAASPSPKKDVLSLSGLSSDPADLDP
Description: (§1) The human embryonic kidney 293 (HEK 293) cell lines (from Emmanuel Bourinet, Montpellier, France) stably expressing CaV3.2 or CaV3.3 were cultured under 5% carbon dioxide at 37 °C in Dulbecco’s Modified Eagle Medium (DMEM) Glutamax (Gibco, Life Technologies, Carlsbad, CA, USA) supplemented with 10% (v/v) fetal bovine serum (FBS), 100 U/mL penicillin, 100 μg/mL streptomycin (Gibco, Life Technologies, Carlsbad, CA, USA), and 750 μg/mL geneticin (G418) (Gibco, Life Technologies). The Chinese Hamster Ovary (CHO) cell lines (Emmanuel Bourinet, Montpellier, France) expressing CaV3.1 were cultured under 5% carbon dioxide at 37 °C in Alpha Minimum Essential Media (MEM) Glutamax (Gibco, Life Technologies), supplemented with 10% (v/v) fetal bovine serum (FBS) and 300 μg/mL geneticin (G418) (Gibco, Life Technologies). The human neuroblastoma SH-SY5Y cells (Victor Diaz, Goettingen, Germany) were cultured under 5% carbon dioxide at 37 °C in RPMI 1640 antibiotic-free medium (Invitrogen, Carlsbad, CA, USA), supplemented with 15% FBS and 2 mM GlutaMAX™ (Invitrogen). D-PBS (Gibco, Life Technologies) was used to wash the cells, and 0.25% Trypsin-EDTA (Gibco, Life Technologies) was used to detach cells from the flask surface. They were split in a ratio of 1:5 (ideally 1000 cells/cm^2) when they reached 70–80% confluence (every 2–3 days). Transiently transfected CaV3.1 HEK293 T cells were used in FLIPR Assays. HEK 293 T cells were cultured under 5% carbon dioxide at 37 °C in DMEM supplemented with 10% (v/v) FBS. D-PBS was used to wash the cells, and 0.25% Trypsin-EDTA was used to detach cells from the flask surface. The cells were split and seeded at 6 million cells per T175 flask, to reach 70–80% confluence after 24 h. The next day, 12 μg DNA of human CaV3.1 was incubated in 900 μL serum-free DMEM with 36 μL FuGENE HD transfection reagent (Promega Corporation, Madison, WI, USA) (1:3 DNA/Fugene ratio) for 20 min, and then the mixture was added into the cell flask slowly, drop by drop. After the transfection, the cells were cultured under 5% carbon dioxide at 37 °C for 24 h and then moved to a 28 °C incubator.
(§2) HEK 293 cells stably expressing CaV3.2 or CaV3.3 were seeded into 384-well black wall clear bottom plates (Corning) at a density of 30,000 cells per well. Transiently transfected CaV3.1HEK293 T cells were seeded into 384-well black wall clear bottom plates at a density of 60,000 cells per well. Once the cells reached 90–95% confluence after 24 h, the media were removed from the wells and replaced with 20 μL of 10% calcium 4 dye (Molecular Devices, Sunnyvale, CA, USA) in HBSS-HEPES (containing 5 mM KCl, 10 mM HEPES, 140 mM NaCl, 10 mM glucose, and 0.5 mM CaCl2, pH 7.4) with 0.1% bovine serum albumin (BSA). The cells were incubated for 30 min at 37 °C in the presence of 5% carbon dioxide. Each well on the reagent plates for the first addition contained 15 μL different concentrations of compounds dissolved in HBSS-HEPES containing 0.1% BSA and <0.5% DMSO and was incubated for 20 min after loaded. Positive and negative controls contained 15 μL of HBSS-HEPES (0.1% BSA) alone. The plates were placed in the FLIPR^TETRA (Molecular Devices, Sunnyvale, CA, USA) programmed to measure maximum fluorescence intensity following a second addition of the agonist 5 mM CaCl2. The fluorescence readings were recorded and converted as described previously, and HBSS-HEPES (0.1% BSA) was used in the second addition as a negative control.

CaV3.2 = CaV3.2 (Homo sapiens, UniProt O95180); assay: T-type calcium channel window current FLIPR assay, CaV3.2; assay type: cell-based
Chain of CaV3.2 (O95180 whole entry): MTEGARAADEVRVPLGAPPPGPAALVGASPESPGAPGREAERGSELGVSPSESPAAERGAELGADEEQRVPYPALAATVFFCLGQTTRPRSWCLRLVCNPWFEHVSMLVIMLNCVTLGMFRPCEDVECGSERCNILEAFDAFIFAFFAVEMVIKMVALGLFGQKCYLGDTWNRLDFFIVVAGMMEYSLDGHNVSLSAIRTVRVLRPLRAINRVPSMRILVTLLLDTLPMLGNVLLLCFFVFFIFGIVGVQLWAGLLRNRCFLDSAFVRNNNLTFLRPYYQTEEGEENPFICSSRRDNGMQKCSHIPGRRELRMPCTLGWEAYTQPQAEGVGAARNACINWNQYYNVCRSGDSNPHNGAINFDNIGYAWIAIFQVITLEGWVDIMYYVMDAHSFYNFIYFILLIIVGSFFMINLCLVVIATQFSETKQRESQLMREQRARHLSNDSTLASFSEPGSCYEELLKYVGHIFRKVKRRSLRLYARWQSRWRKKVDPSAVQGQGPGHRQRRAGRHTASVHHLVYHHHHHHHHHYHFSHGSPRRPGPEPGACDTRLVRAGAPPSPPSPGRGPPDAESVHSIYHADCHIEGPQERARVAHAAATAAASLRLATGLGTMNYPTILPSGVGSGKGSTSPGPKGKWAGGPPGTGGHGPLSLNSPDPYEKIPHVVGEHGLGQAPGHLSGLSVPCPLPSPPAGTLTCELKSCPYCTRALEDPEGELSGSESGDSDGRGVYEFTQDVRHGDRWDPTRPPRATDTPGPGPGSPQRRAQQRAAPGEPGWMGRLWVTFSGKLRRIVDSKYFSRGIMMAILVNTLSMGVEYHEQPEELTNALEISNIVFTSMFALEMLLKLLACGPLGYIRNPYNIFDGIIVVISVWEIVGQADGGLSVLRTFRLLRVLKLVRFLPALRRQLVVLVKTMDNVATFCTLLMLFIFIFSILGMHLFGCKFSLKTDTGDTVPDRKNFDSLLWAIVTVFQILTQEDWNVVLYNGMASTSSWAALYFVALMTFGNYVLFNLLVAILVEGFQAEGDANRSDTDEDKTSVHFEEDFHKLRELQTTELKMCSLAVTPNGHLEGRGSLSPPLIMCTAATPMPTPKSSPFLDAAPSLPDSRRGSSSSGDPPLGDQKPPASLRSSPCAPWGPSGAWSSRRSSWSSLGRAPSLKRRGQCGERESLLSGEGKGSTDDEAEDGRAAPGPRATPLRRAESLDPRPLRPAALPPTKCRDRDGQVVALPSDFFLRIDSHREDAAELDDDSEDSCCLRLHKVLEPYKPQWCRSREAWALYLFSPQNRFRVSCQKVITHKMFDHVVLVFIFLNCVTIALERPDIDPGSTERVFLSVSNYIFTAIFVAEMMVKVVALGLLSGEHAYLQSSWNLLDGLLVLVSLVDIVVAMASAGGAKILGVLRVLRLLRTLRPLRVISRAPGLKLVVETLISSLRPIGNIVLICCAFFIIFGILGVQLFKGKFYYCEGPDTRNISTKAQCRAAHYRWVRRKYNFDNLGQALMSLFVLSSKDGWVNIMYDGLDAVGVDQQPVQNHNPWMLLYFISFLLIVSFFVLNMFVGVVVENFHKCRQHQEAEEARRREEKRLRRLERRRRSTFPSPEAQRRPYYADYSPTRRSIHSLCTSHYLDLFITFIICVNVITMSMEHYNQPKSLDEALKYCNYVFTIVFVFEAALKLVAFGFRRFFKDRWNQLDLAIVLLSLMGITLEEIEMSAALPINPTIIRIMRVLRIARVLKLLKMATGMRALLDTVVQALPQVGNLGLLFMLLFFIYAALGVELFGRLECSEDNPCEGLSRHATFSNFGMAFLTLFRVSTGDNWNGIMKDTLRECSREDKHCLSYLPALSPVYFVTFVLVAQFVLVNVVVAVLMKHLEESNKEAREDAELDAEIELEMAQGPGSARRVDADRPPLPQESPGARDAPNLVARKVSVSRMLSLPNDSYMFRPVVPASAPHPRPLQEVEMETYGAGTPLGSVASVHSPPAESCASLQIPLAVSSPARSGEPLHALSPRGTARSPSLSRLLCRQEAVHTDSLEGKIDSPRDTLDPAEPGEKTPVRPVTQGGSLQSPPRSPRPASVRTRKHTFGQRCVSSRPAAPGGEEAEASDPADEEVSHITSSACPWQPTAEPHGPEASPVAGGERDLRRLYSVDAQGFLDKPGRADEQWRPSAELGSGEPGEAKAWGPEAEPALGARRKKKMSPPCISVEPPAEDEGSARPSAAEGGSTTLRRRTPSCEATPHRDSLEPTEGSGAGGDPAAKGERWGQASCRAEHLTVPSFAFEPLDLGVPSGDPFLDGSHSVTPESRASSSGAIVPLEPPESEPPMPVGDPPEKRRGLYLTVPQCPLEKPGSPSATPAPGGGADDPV
Description: as §1, §2

HT-29 cells = assay: Cell viability MTT assay, HT-29; assay type: cell-based, human; details: for viability at 50 µM: HT-29, 50 µM, n = 4; for IC50: n = 3; for preferential anti-proliferative activity on HT-29: versus MCF-7, T-47D, A549
Description: Human breast cancer cell line MCF-7 and T-47D, lung cancer cell line A549, and colon cancer cell line HT-29 were cultured under 5% carbon dioxide at 37 °C in DMEM Glutamax (Gibco, Life Technologies) supplemented with 10% (v/v) FBS. They were split in a ratio of 1:3–1:6 (ideally 2–4 × 10,000 cells/cm^2) when they reached 70–80% confluence using 0.25% Trypsin-EDTA. For cell viability MTT assay, cells were seeded into 96-well clear bottom culture plates (Corning, Lowell, MA, USA) at a density of 5 × 10^3 cells/well and settled at 37 °C for 24 h.
Seeded cells were treated with various concentrations of compounds for desired time period (24, 48 and 72 h). After the treatments, the media were removed from each well, and replaced with 25 μL of serum-free media and 25 μL of MTT Reagent (cat. no., ab211091; Abcam, Cambridge, MA, USA). The plate was then incubated at 37 °C for 3 h, and 75 μL of MTT Solvent (cat. no., ab211091; Abcam) was added into each well after incubation. The absorbance was evaluated at 590 nm. Cell-wells treated with 0.1% DMSO were used as positive control and no cell-wells were used as background control.

[1] = FLIPR window current, n = 3, read-out: IC50 CaV3.2 (LVA CaVs)
[2] = FLIPR, one separate experiment in quadruplicate (n = 4), read-out: IC50 of representative concentration-response curve, CaV3.2 window current
[3] = Homo sapiens, HT-29, 72 h, 72 h treatment

## O=C(c1cn(Cc2ccccc2)c2ccccc12)c1cn(Cc2ccccc2)c2ccccc12 [IX, bis(1-benzyl-1H-indol-3-yl)methanone]
Human CaV3.1
  IC50: 35.1 ± 1.05 µM
CaV3.2; IC50 CaV3.2 (LVA CaVs), FLIPR window current, n = 3
  IC50: 3.05 ± 0.51 µM
CaV3.2; IC50 of representative concentration-response curve, CaV3.2 window current, FLIPR, one separate experiment in quadruplicate (n = 4)
  IC50: 3.28 µM

## O=C(c1c[nH]c2ccccc12)c1c[nH]c2ccccc12 [DIM-one, 3,3′-diindolylmethanone]
Human CaV3.1
  IC50: 158 ± 11.1 µM
CaV3.2; FLIPR
  reduced potency for CaV3.2 window current compared to DIM: ~ 1.4 fold
CaV3.2; [1]
  IC50: 73.9 ± 2.48 µM
CaV3.2; [2]
  IC50: 74 µM
HT-29 cells; 72 h treatment
  better antiproliferative effect on HT-29 cell viability than on the other three cancer cell lines: ≥ 2 fold
HT-29 cells; Homo sapiens, 72 h treatment
  viability at 50 µM: 5.95 ± 0.19%
HT-29 cells; [3]
  IC50: 20 µM
HT-29 cells
  preferential anti-proliferative activity on HT-29: preferential anti-proliferative activity

## c1ccc2c(Cc3c[nH]c4ccccc34)c[nH]c2c1 [DIM, 3,3′-diindolylmethane, reference compound]
Human CaV3.1
  IC50: > 200 µM
CaV3.2; [1]
  IC50: 52.2 ± 3.8 µM
CaV3.2; [2]
  IC50: 54.7 µM
HT-29 cells; Homo sapiens, 72 h treatment
  viability at 50 µM: 25.3 ± 2.44%
HT-29 cells; [3]
  IC50: 33 µM

## O=C(c1c[nH]c2cc(Br)ccc12)c1c[nH]c2cc(Br)ccc12 [IV]
Human CaV3.1
  IC50: 53.5 ± 2 µM
CaV3.2; [1]
  IC50: 57.3 ± 3.38 µM
HT-29 cells; 72 h treatment
  better antiproliferative effect on HT-29 cell viability than on the other three cancer cell lines: ~ 3 fold
  improved potency on HT-29 cell viability compared with the other three compounds: > 10 fold
  IC50: 1.2 µM
HT-29 cells; Homo sapiens, 72 h treatment
  viability at 50 µM: 0.85 ± 0.21%
HT-29 cells; Homo sapiens, HT-29, 24 h, 24 h treatment
  IC50: 5.9 µM
HT-29 cells; Homo sapiens, HT-29, 48 h, 48 h treatment
  IC50: 1.6 µM
HT-29 cells; [3]
  IC50: 1 µM
HT-29 cells
  preferential anti-proliferative activity on HT-29: preferential anti-proliferative activity
